Reference: US20170209534A1, “Pseudhymenochirins As Agents For Treatment Of Cancer And Microbial Infections” (priority 2014, published 2017)
Read-outs that look alike come from different tables or passages of the source. No end group written: not given here.

How the values were obtained:
[1] = system: Stenotrophomonas maltophilia strains; conditions: all Stenotrophomonas strains (B32/1, B32/4, B5/5, B6/2, U8708); cited from earlier work
Acinetobacter strains = conditions: strains NM8, NM35, NM75, NM109, NM124; Mechkarska et al., 2013; cited from earlier work
[2] = system: human breast adenocarcinoma MDA-MB-231 cells; assay: Viability assay (CellTiter-Glo, ATP), MDA-MB-231; assay type: cell-based; conditions: 24 h exposure; mean ± S.E.M.; read-out: LC50 MDA-231
Procedure: (§1) For cytotoxicity assay, the effect of the peptides on three different types of cancer cells were analysed, human non-small cell lung adenocarcinoma A549 cells, human breast adenocarcinoma MDA-MB-231 cells and human colorectal adenocarcinoma HT-29 cells. As control, HUVEC cell line was selected.
(§2) A549 cell line was maintained in RPMI 1640 medium containing 2 mM L-glutamine and supplemented with 10% FCS at 37° C. MDA-MB-231 and HT-29 cell lines were maintained in DMEM medium supplemented with 10% FCS at 37° C. The medium for cancer cells were further supplemented with antibiotics, penicillin 50 U/mL and streptomycin […]. HUVEC cells were maintained in EndoGRO MV-VEGF Complete Media Kit at 37° C.
(§3) The cells from each of the four cell lines were seeded individually in a 96-wells plate at a cell density of 5×10^3 cells/well. […]
(§4) The effect of the peptides on the cell viability was determined by the measurement of the concentration of ATP using CellTitre-Glo Luminescent Cell Viability assay. Luminescent signals were measured using a GLOMAX Luminometer system.
(§5) The LC50 value was calculated for both the peptides for individual cell lines by conducting non-linear regression analysis using commercially available software (SPPS version 17.0; SPS Inc, Chicago, Ill., USA). […]

[3] = system: human colorectal adenocarcinoma HT-29 cells; assay: Viability assay (CellTiter-Glo, ATP), HT-29; assay type: cell-based; conditions: 24 h exposure; mean ± S.E.M.; read-out: LC50 HT-29
Procedure: as §1, §2, §3, §4, §5

in vitro = assay type: cell-based
Procedure: as §1, §2, §3, §4, §5

Haemolysis assay = assay type: cell-based, human; conditions: human, pH 7.4
Procedure: (§6) For analysis of the haemolytic activity, RBCs (2×10^7 cells) taken from a healthy donor in DBPS, pH 7.4 (100 μL) were incubated with Ps-1Pb and Ps-2 Pa respectively in varying concentrations ranging from 1.6 μM to 100 μM of the peptides for a period of 1 hour at 37° C. After 1 hr, the samples were centrifuged at 12000 rpm for 15 seconds and the supernatant was collected. Absorbance of the supernatant was measured at 450 nm.
(§7) As control, the RBCs at a concentration of 2×10^7 were incubated in DBPS as a negative control to detect the absorbance in the absence of haemolysis. In addition, positive control was also maintained in which the RBC at a concentration of 2×10^7 was incubated with DPBS and 1% v/v Tween-20. The controls were centrifuged at 12000 rpm for 15 seconds and an absorbance reading was taken for the supernatant at 450 nm.
(§8) The LC50 value was taken as the mean concentration of peptide producing 50% haemolysis in three independent experiments.

[4] = system: human red blood cells (RBC); assay: Haemolysis assay; assay type: cell-based
Procedure: as §6, §7, §8

[5] = system: S. aureus (ATCC 25923 and MRSA clinical isolates); assay type: cell-based, Staphylococcus aureus; conditions: for Minimum inhibitory concentration S. aureus ATCC 25923 / Minimum inhibitory concentration S. aureus S908: ATCC 25923; for Minimum inhibitory concentration S. aureus 127/08 / Minimum inhibitory concentration S. aureus 145/08 / Minimum inhibitory concentration S. aureus 274/08 / Minimum inhibitory concentration S. aureus T4/6: MRSA clinical isolate
Text: Six clinical sporadic isolates of MRSA were isolated from the wounds of patients admitted to Tawam Hospital (Al Ain, UAE). The strains were characterised by multi-locus sequence typing (MLST), Staphylococcal cassette chromosome (SCCmec) typing, accessory gene regulator (agr) typing, Staphylococcus protein A (spa) typing, and toxin gene carriage (Sonnevend et al., 2012). The isolated strains (127/08, 145/08, 274/08, V4180, S908, and T4/6) were resistant to all β-lactam antibiotics tested and to a range of non-β-lactam antibiotics.
(§9) Minimum Inhibitory Concentration (MIC) of the peptides was determined in duplicate in three independent experiments by standard micro-dilution methods according to CLSI guidelines (Clinical Laboratory and Standards Institute 2008a, 2008b) using 96-well microtitre cell-culture plates.
(§10) For bacteria assays, serial dilutions of the peptides (0.6-80 μM) in Mueller-Hinton broth (50 μL) were mixed with an inoculum of 50 μL of 10^6 colony forming units (CFU)/mL) from a log-phase culture. The peptide and inoculum mixture was incubated for 18 h at 37° C. in a humidified atmosphere. For yeast, an inoculum of 5×10^4 CFU/mL from Candida albicans was incubated in the presence of serial dilutions of the peptides (0.6-80 μM) in RPMI 1640 medium for 48 h at 35° C. After incubation, the absorbance at 630 nm of each well was determined using a microtiter plate reader.
(§11) As a control, incubations were carried out in parallel with increasing concentrations of antibiotics wherever the isolate was originally susceptible (ampicillin for S. aureus and E. coli, ciprofloxacin for K. pneumoniae and P. aeruginosa, and amphotericin B for C. albicans).

S. epidermidis = assay: MIC by micro-dilution, S. epidermidis; assay type: cell-based; conditions: for Minimum inhibitory concentration S. epidermidis RP62A: strain RP62A; for Minimum inhibitory concentration S. epidermidis RP62A/1: strain RP62A/1; for Minimum inhibitory concentration S. epidermidis T6/19: strain T6/19; for Minimum inhibitory concentration S. epidermidis T37/8: strain T37/8
Procedure: as §9, §10

E. faecalis ATCC 29212 = assay: MIC by micro-dilution, E. faecalis; assay type: cell-based, Enterococcus faecalis; conditions: reference strain
Procedure: as §9, §10

E. coli = assay: MIC by micro-dilution, E. coli; assay type: cell-based; conditions: reference strain
Procedure: as §9, §10, §11

K. pneumoniae = assay: MIC by micro-dilution, K. pneumoniae; assay type: cell-based; conditions: reference strain
Procedure: as §9, §10, §11

P. aeruginosa = assay: MIC by micro-dilution, P. aeruginosa; assay type: cell-based; conditions: reference strain
Procedure: as §9, §10, §11

C. albicans = assay: MIC by micro-dilution, C. albicans; assay type: cell-based, Candida albicans; conditions: reference strain; RPMI 1640, 48 h at 35° C.
Procedure: as §9, §10, §11

A. baumannii = system: A. baumannii
Procedure: (§12) Acinetobacter strains (NM8, NM35, NM75, NM109, and NM124) were isolated from different hospitals in the UAE. The Acinetobacter strains were characterised based on PCR analysis. […] Stenotrophomonas maltophilia strains (B32/1, B32/4, B5/5, B6/2, and U8708) were isolated from patients with bloodstream infection as discussed in Jumaa et al, 2006.
as §9, §10

S. maltophilia = system: S. maltophilia
Procedure: as §12, §9, §10

S. aureus (ATCC 25923) = assay type: cell-based; conditions: 4×MIC, within 180 min
Procedure: In order to determine the rate at which the peptides caused cell death, log-phase cultures of S. aureus (ATCC 25923) and E. coli (ATCC 25726) at a concentration of 0.5×10^6 CFU/mL in Mueller-Hinton broth (1 ml) were incubated in polypropylene tubes at 37° C. with Ps-1Pb at a concentration of 4×MIC. Control incubations in the absence of peptide were also carried out. Aliquots of 25 μl were removed at the time intervals 0, 0.5, 1, 2, 3, 4 and 24 hrs and the CFU of the serially diluted samples was determined on Mueller-Hinton agar plates. The time required for 99.9% cell death was determined.

[6] = 1 hour at 37° C., mean ± S.E.M., read-out: LC50 RBC (50% haemolysis)

Compound	MIC against Stenotrophomonas strains [1] [mg/L]	susceptibility of Acinetobacter strains (in words) (Acinetobacter strains)	Minimum inhibitory concentration S. aureus V4180 [5] [µM]	Minimum inhibitory concentration S. aureus ATCC 25923 [5] [µM]	Minimum inhibitory concentration S. aureus S908 [5] [µM]	Minimum inhibitory concentration S. aureus 127/08 [5] [µM]	Minimum inhibitory concentration S. aureus 145/08 [5] [µM]	Minimum inhibitory concentration S. aureus 274/08 [5] [µM]	Minimum inhibitory concentration S. aureus T4/6 [5] [µM]	Minimum inhibitory concentration S. epidermidis RP62A (S. epidermidis) [µM]	Minimum inhibitory concentration S. epidermidis RP62A/1 (S. epidermidis) [µM]	Minimum inhibitory concentration S. epidermidis T6/19 (S. epidermidis) [µM]	Minimum inhibitory concentration S. epidermidis T37/8 (S. epidermidis) [µM]	Minimum inhibitory concentration E. faecalis ATCC 29212 (E. faecalis ATCC 29212) [µM]	Minimum inhibitory concentration E. coli (E. coli) [µM]	Minimum inhibitory concentration K. pneumoniae (K. pneumoniae) [µM]	Minimum inhibitory concentration P. aeruginosa (P. aeruginosa) [µM]	Minimum inhibitory concentration C. albicans (C. albicans) [µM]	Minimum inhibitory concentration A. baumannii NM8 (A. baumannii) [µM]	Minimum inhibitory concentration A. baumannii NM35 (A. baumannii) [µM]	also measured
C[C@@H](O)[C@H]1C(=O)N2C(C(=O)O)=C(S[C@@H]3CN[C@H](C(=O)N(C)C)C3)[C@H](C)[C@H]12 [meropenem]	> 32	–	–	–	–	–	–	–	–	–	–	–	–	–	–	–	–	–	–	–	–
CN(C)c1cc(NC(=O)CNC(C)(C)C)c(O)c2c1C[C@H]1C[C@H]3[C@H](N(C)C)C(O)=C(C(N)=O)C(=O)[C@@]3(O)C(O)=C1C2=O [tigecycline]	–	sensitive	–	–	–	–	–	–	–	–	–	–	–	–	–	–	–	–	–	–	–
GIFPIFAKLLGKVIKVASSLISKGRTE [Pseudhymenochirin-2Pa, Pseudhymenochirin-2 Pa]	–	–	10	5	10	5	10	10	10	5	2.5	5	10	20	>80	>80	>80	80	20	10	CC50 [2]: 6.2 ± 0.6 µM; CC50 [3]: 11.5 ± 2.6 µM; CC50 at 24 h (in vitro; 24 h exposure, non-neoplastic cells, mean ± S.E.M., read-out: LC50 HUVEC): 68 µM; HC50 at 1 hour (Haemolysis assay; [6]): 6.2 ± 1 µM; CC50 [4, 6]: 6 µM; haemolytic activity (in words) ([4]; human erythrocytes): appreciable haemolytic activity; Minimum inhibitory concentration A. baumannii NM75 (A. baumannii): 10 µM; Minimum inhibitory concentration A. baumannii NM109 (A. baumannii): 10 µM; Minimum inhibitory concentration A. baumannii NM124 (A. baumannii): 20 µM; Minimum inhibitory concentration S. maltophilia B5/5 (S. maltophilia; clinical isolate): 40 µM; Minimum inhibitory concentration S. maltophilia B6/2 (S. maltophilia; clinical isolate): 20 µM; Minimum inhibitory concentration S. maltophilia B32/1 (S. maltophilia; clinical isolate): 10 µM; Minimum inhibitory concentration S. maltophilia B32/4 (S. maltophilia; clinical isolate): 10 µM; Minimum inhibitory concentration S. maltophilia U8908 (S. maltophilia; clinical isolate): 20 µM
IKIPSFFRNILKKVGKEAVSLIAGALKQS [Pseudhymenochirin-1Pb]	–	–	5	5	5	5	10	5	5	2.5	1.25	2.5	2.5	10	10	20	20	80	10	5	CC50 at 24 h (in vitro; human): 5.6 ± 0.9 µM; HC50 at 1 hour (Haemolysis assay): 28 ± 2 µM; haemolytic activity (in words) [4]: high haemolytic activity; less cytotoxic to human erythrocytes as compared to the tumour cells [4]: 3-11 fold; MIC against clinical isolates of A. baumannii (range) (A. baumannii): 5 to 10 µM; Minimum inhibitory concentration A. baumannii NM75 (A. baumannii): 5 µM; Minimum inhibitory concentration A. baumannii NM109 (A. baumannii): 5 µM; Minimum inhibitory concentration A. baumannii NM124 (A. baumannii): 5 µM; MIC against clinical isolates of S. maltophilia (range) (S. maltophilia): 5 to 10 µM; Minimum inhibitory concentration S. maltophilia U8908 (S. maltophilia): 5 µM; Minimum inhibitory concentration S. maltophilia B5/5 (S. maltophilia; clinical isolate): 10 µM; Minimum inhibitory concentration S. maltophilia B6/2 (S. maltophilia; clinical isolate): 5 µM; Minimum inhibitory concentration S. maltophilia B32/1 (S. maltophilia; clinical isolate): 5 µM; Minimum inhibitory concentration S. maltophilia B32/4 (S. maltophilia; clinical isolate): 5 µM; killing of the bacteria, S. aureus (S. aureus (ATCC 25923)): > 99.9%
co-trimoxazole	< 5	–	–	–	–	–	–	–	–	–	–	–	–	–	–	–	–	–	–	–	–
colistin	–	sensitive	–	–	–	–	–	–	–	–	–	–	–	–	–	–	–	–	–	–	–
